Marks after values point to notes of the source that are not given here.
Test system: patients with advanced solid tumors
Test: phase I dose escalation: safety, DLT, MTD, RP2D (CTCAE v. 5)
Type: in vivo
Conditions: for maximum tolerated dose (MTD): oral once daily
Source text: Subsequent dosing cohorts were enrolled using a standard 3 + 3 design.
If any patient in any cohort of three patients developed a DLT during cycle 1, an additional three patients were recruited to expand the cohort to up to six evaluable patients. If two or more patients in any expanded cohort developed a DLT, this dose was considered non-tolerated, and dose escalation was discontinued. The MTD was defined as the highest dose level for which no more than one of six patients experienced a DLT.
Patients were continuously evaluated for adverse events throughout the study using the Common Terminology Criteria of Adverse Events (CTCAE v. 5). The patients underwent a clinical history and physical examination, an ECOG PS, a complete blood count (CBCs), chemistry, coagulation studies, urinalysis, a serum pregnancy test (as applicable), a triplicate ECG, an ophthalmology examination, and baseline tumor assessment at screening. During cycle 1, weekly history and physical examination, CBC, chemistry, coagulation parameters, urinalysis, and triplicate ECGs were performed; in subsequent cycles, weekly labs were limited to a CBC. Repeat ophthalmology examinations were performed at cycle 3, day 1, and at the end of treatment. Repeat tumor assessment was performed every 2 cycles (6 weeks) in accordance with RECIST 1.1.

[1] = All Continuous Patients (N=8), G3
[2] = All Continuous Patients (N=8), G4

CC(C)[C@H](N)C(=O)SCC/C=C/[C@@H]1CC(=O)NCc2nc(cs2)C(=O)NC(C)(C)C(=O)N[C@@H](C(C)C)C(=O)O1 [OKI-179, Bocodepsin]
three: patients with grade 3 QT prolongation (whole study)
nine: patients with grade > 3 treatment-related TEAEs (all patients (n = 34))
2 * patients: DLTs (Cohort 11, 300 mg, Schedule 2 (continuous), 2 patients, grade 2 and grade 4 thrombocytopenia)
1 (50) N (%): TEAE: Constipation (continuous, 300 mg (N=2), G1) | TEAE: Diarrhea (continuous, 300 mg (N=2), G1) | TEAE: Headache (continuous, 300 mg (N=2), G1) | TEAE: Anemia (continuous, 300 mg (N=2), G2) | TEAE: Decreased appetite (continuous, 300 mg (N=2), G3) | TEAE: Fatigue (continuous, 300 mg (N=2), G3)
3 (50) N (%): TEAE: Constipation (continuous, 200 mg (N=6), G2)
300 mg: recommended phase 2 dose (RP2D) (daily on a 4:3 schedule)
Eleven: patients with treatment-related TEAEs leading to dose holding or reduction (all patients (n = 34))
47.1%: TEAE: Fatigue (all patients (n = 34))
35.3%: TEAE: Anemia (all patients (n = 34))
25%: grade 4 thrombocytopenia events (continuous dosing cohort, two events, in the 300 mg cohort)
11.8%: grade > 3 treatment-related TEAE: anemia (all patients (n = 34))
0 N (%): TEAE: Headache [1] | TEAE: Nausea [1] | TEAE: Pain [1] | TEAE: Platelet count decreased [1] | TEAE: Abdominal pain [2] | TEAE: Anemia [2] | TEAE: Constipation [2] | TEAE: Decreased appetite [2] | TEAE: Diarrhea [2] | TEAE: Dyspepsia [2] | TEAE: ECG QT prolonged [2] | TEAE: Fatigue [2] | TEAE: Headache [2] | TEAE: Nausea [2] | TEAE: Pain [2] | TEAE: Anemia (continuous, 200 mg (N=6), G1) | TEAE: Decreased appetite (continuous, 200 mg (N=6), G2) | TEAE: Diarrhea (continuous, 200 mg (N=6), G2) | TEAE: Headache (continuous, 200 mg (N=6), G2) | TEAE: Abdominal pain (continuous, 200 mg (N=6), G3) | TEAE: Anemia (continuous, 200 mg (N=6), G3) | TEAE: Constipation (continuous, 200 mg (N=6), G3) | TEAE: Decreased appetite (continuous, 200 mg (N=6), G3) | TEAE: Diarrhea (continuous, 200 mg (N=6), G3) | TEAE: Dyspepsia (continuous, 200 mg (N=6), G3) | TEAE: ECG QT prolonged (continuous, 200 mg (N=6), G3) | TEAE: Fatigue (continuous, 200 mg (N=6), G3) | TEAE: Headache (continuous, 200 mg (N=6), G3) | TEAE: Nausea (continuous, 200 mg (N=6), G3) | TEAE: Pain (continuous, 200 mg (N=6), G3) | TEAE: Platelet count decreased (continuous, 200 mg (N=6), G3) | TEAE: Abdominal pain (continuous, 200 mg (N=6), G4) | TEAE: Anemia (continuous, 200 mg (N=6), G4) | TEAE: Constipation (continuous, 200 mg (N=6), G4) | TEAE: Decreased appetite (continuous, 200 mg (N=6), G4) | TEAE: Diarrhea (continuous, 200 mg (N=6), G4) | TEAE: Dyspepsia (continuous, 200 mg (N=6), G4) | TEAE: ECG QT prolonged (continuous, 200 mg (N=6), G4) | TEAE: Fatigue (continuous, 200 mg (N=6), G4) | TEAE: Headache (continuous, 200 mg (N=6), G4) | TEAE: Nausea (continuous, 200 mg (N=6), G4) | TEAE: Pain (continuous, 200 mg (N=6), G4) | TEAE: Platelet count decreased (continuous, 200 mg (N=6), G4) | TEAE: Abdominal pain (continuous, 300 mg (N=2), G1) | TEAE: Anemia (continuous, 300 mg (N=2), G1) | TEAE: Decreased appetite (continuous, 300 mg (N=2), G1) | TEAE: Dyspepsia (continuous, 300 mg (N=2), G1) | TEAE: ECG QT prolonged (continuous, 300 mg (N=2), G1) | TEAE: Fatigue (continuous, 300 mg (N=2), G1) | TEAE: Pain (continuous, 300 mg (N=2), G1) | TEAE: Platelet count decreased (continuous, 300 mg (N=2), G1) | TEAE: Abdominal pain (continuous, 300 mg (N=2), G2) | TEAE: Constipation (continuous, 300 mg (N=2), G2) | TEAE: Decreased appetite (continuous, 300 mg (N=2), G2) | TEAE: Diarrhea (continuous, 300 mg (N=2), G2) | TEAE: Dyspepsia (continuous, 300 mg (N=2), G2) | TEAE: ECG QT prolonged (continuous, 300 mg (N=2), G2) | TEAE: Fatigue (continuous, 300 mg (N=2), G2) | TEAE: Headache (continuous, 300 mg (N=2), G2) | TEAE: Nausea (continuous, 300 mg (N=2), G2) | TEAE: Pain (continuous, 300 mg (N=2), G2) | TEAE: Platelet count decreased (continuous, 300 mg (N=2), G2) | TEAE: Abdominal pain (continuous, 300 mg (N=2), G3) | TEAE: Anemia (continuous, 300 mg (N=2), G3) | TEAE: Constipation (continuous, 300 mg (N=2), G3) | TEAE: Diarrhea (continuous, 300 mg (N=2), G3) | TEAE: Dyspepsia (continuous, 300 mg (N=2), G3) | TEAE: ECG QT prolonged (continuous, 300 mg (N=2), G3) | TEAE: Headache (continuous, 300 mg (N=2), G3) | TEAE: Nausea (continuous, 300 mg (N=2), G3) | TEAE: Pain (continuous, 300 mg (N=2), G3) | TEAE: Platelet count decreased (continuous, 300 mg (N=2), G3) | TEAE: Abdominal pain (continuous, 300 mg (N=2), G4) | TEAE: Anemia (continuous, 300 mg (N=2), G4) | TEAE: Constipation (continuous, 300 mg (N=2), G4) | TEAE: Decreased appetite (continuous, 300 mg (N=2), G4) | TEAE: Diarrhea (continuous, 300 mg (N=2), G4) | TEAE: Dyspepsia (continuous, 300 mg (N=2), G4) | TEAE: ECG QT prolonged (continuous, 300 mg (N=2), G4) | TEAE: Fatigue (continuous, 300 mg (N=2), G4) | TEAE: Headache (continuous, 300 mg (N=2), G4) | TEAE: Nausea (continuous, 300 mg (N=2), G4) | TEAE: Pain (continuous, 300 mg (N=2), G4)
18 (52.9%) patients (%): patients with Grade > 3 TEAEs (all patients (n = 34))
450 mg: maximum tolerated dose (MTD) (4:3 intermittent dosing)
75%: TEAE: Constipation (continuous dosing cohort) | TEAE: Nausea (continuous dosing cohort)
38%: TEAE: Diarrhea (continuous dosing cohort) | TEAE: Headache (continuous dosing cohort)
50%: TEAE: Fatigue (continuous dosing cohort) | TEAE: platelet count decrease (continuous dosing cohort)
four: patients with grade 1 or 2 QT prolongation (whole study)
33 (97.1%) patients (%): patients with a treatment-related TEAE (all patients (n = 34))
2 (100) N (%): TEAE: Nausea (continuous, 300 mg (N=2), G1) | TEAE: Platelet count decreased (continuous, 300 mg (N=2), G4)
15: number of grade > 3 treatment-related TEAEs (all patients (n = 34))
70.6%: TEAE: Nausea (all patients (n = 34))
5.9%: grade > 3 treatment-related TEAE: anorexia (all patients (n = 34)) | grade > 3 treatment-related TEAE: decreased platelet count (all patients (n = 34)) | grade > 3 treatment-related TEAE: prolonged QT interval on ECG (all patients (n = 34))
2 (25) N (%): TEAE: Platelet count decreased [2]
1 (17) N (%): TEAE: Abdominal pain (continuous, 200 mg (N=6), G1) | TEAE: Decreased appetite (continuous, 200 mg (N=6), G1) | TEAE: Dyspepsia (continuous, 200 mg (N=6), G1) | TEAE: ECG QT prolonged (continuous, 200 mg (N=6), G1) | TEAE: Fatigue (continuous, 200 mg (N=6), G1) | TEAE: Pain (continuous, 200 mg (N=6), G1) | TEAE: Platelet count decreased (continuous, 200 mg (N=6), G1) | TEAE: Abdominal pain (continuous, 200 mg (N=6), G2) | TEAE: Anemia (continuous, 200 mg (N=6), G2) | TEAE: Dyspepsia (continuous, 200 mg (N=6), G2) | TEAE: ECG QT prolonged (continuous, 200 mg (N=6), G2) | TEAE: Pain (continuous, 200 mg (N=6), G2) | TEAE: Platelet count decreased (continuous, 200 mg (N=6), G2)
32.4%: TEAE: anorexia (all patients (n = 34))
200 mg: maximum tolerated dose (MTD) (continuous dosing)
0 patients: DLTs (Cohort 1, 30 mg, Schedule 1 (4:3), 1 patient) | DLTs (Cohort 2, 60 mg, Schedule 1 (4:3), 2 patients) | DLTs (Cohort 3, 90 mg, Schedule 1 (4:3), 1 patient) | DLTs (Cohort 4, 120 mg, Schedule 1 (4:3), 1 patient) | DLTs (Cohort 5, 150 mg, Schedule 1 (4:3), 1 patient) | DLTs (Cohort 6, 180 mg, Schedule 1 (4:3), 1 patient) | DLTs (Cohort 7, 210 mg, Schedule 1 (4:3), 1 patient) | DLTs (Cohort 8, 270 mg, Schedule 1 (4:3), 3 patients) | DLTs (Cohort 9, 350 mg, Schedule 1 (4:3), 3 patients) | DLTs (Cohort 12, 200 mg, Schedule 2 (continuous), 6 patients)
41.2%: TEAE: decreased platelet count (thrombocytopenia) (all patients (n = 34))
2 (33) N (%): TEAE: Constipation (continuous, 200 mg (N=6), G1) | TEAE: Diarrhea (continuous, 200 mg (N=6), G1) | TEAE: Headache (continuous, 200 mg (N=6), G1) | TEAE: Nausea (continuous, 200 mg (N=6), G1) | TEAE: Fatigue (continuous, 200 mg (N=6), G2) | TEAE: Nausea (continuous, 200 mg (N=6), G2)
14 (41.2%) patients (%): patients with serious adverse events (SAEs) (all patients (n = 34), one treatment-related (grade 3 nausea))

Reference: publication PMC10778198, “First-in-Human Dose-Escalation Study of the Novel Oral Depsipeptide Class I-Targeting HDAC Inhibitor Bocodepsin (OKI-179) in Patients with Advanced Solid Tumors” (Cancers, 2023)
